The text below walks through data of paper PMC5059758, “Structural characterization of antibiotic self-immunity tRNA synthetase in plant tumour biocontrol agent” (Nature Communications, 2016).

The test system of series [1] is CC(C)C[C@H](N)C(=O)O. The series can be described thus: ATP/PPi exchange assay (amino acid activation), LeuRSAt. The class given is biochemical, A. tumefaciens. As to conditions: other: ATP-PPi exchange, substrate, 28 °C, pH 7.4. The procedure: (§1) The formation of Leu-AMP by ATP/PPi exchange assays was performed as described earlier. Briefly, the reaction buffer contained 50 mM HEPES buffer (pH 7.4), 20 mM KCl, 10 mM MgCl2, 500 μM L-leucine, 4 mM ATP, 1 mM tetrasodium pyrophosphate (NaPPi), 10 μCi/mmol [^32P] NaPPi and 1 μM bovine serum albumin (BSA). The reaction was initiated by addition of 1–4 nM of active enzyme and incubated at 28 °C. Aliquots (5 μl each) were collected over 30 min and quenched in a 10% charcoal slurry containing 0.5% HCl and 50 μl of 200 mM sodium pyrophosphate in 1 M HCl. Liquid scintillation counting was then used to measure the amount of [^32P]-PPi incorporation into ATP that was adsorbed onto the charcoal.

In series [2] the target is T1, wt AgnB2 (LeuRS) (Agrobacterium radiobacter, UniProt B9JQP8). The series can be described thus: Aminoacylation assay, wt AgnB2. Particulars: pH 7.4.
Description: Aminoacylation activities of AgnB2, LeuRSAt and their mutants were measured in 50 mM HEPES buffer (pH 7.4) containing 20 mM KCl, 25 mM MgCl2, 25 mM β-ME, 4 mM ATP, 500 μM [3,4,5-^3H] L-leucine (20 μCi/mmole), 5 μg/ml inorganic pyrophosphatase, 1 μM BSA, 10 μM of active in vitro transcribed tRNA^Leu and enzymes in the range of 2–8 nM. Reactions were pre-incubated with or without substrate and/or inhibitor and then carried out at 28 °C (37 °C-LeuRSHp). Aliquots of the reaction (5–10 μl) were quenched on 3 mM filter pads (Whatman, GE Healthcare) presoaked with 5% trichloroacetic acid (TCA). The pads were washed thrice with 5% TCA and 90% ethanol at 4 °C and then dried. The amount of Leu-tRNA^Leu was then quantified using scintillation counting. Each reaction was performed in triplicate and analyzed using Kaleidagraph (for Km and kcat determinations) or GraphPad Prism software (for IC50 determination).
For series [3], the target named is T2, LeuRSAt (Agrobacterium tumefaciens, UniProt Q8UBV2). The series can be described thus: Isothermal titration calorimetry, LeuRSAt. Details: species or system A. tumefaciens. Particulars: ITC, Leu-AMS binding to LeuRSAt. The procedure:
(§2) Typically, about 4–8 μM active protein solution and a 10-fold higher ligand concentration were prepared in buffer containing 50 mM HEPES (pH 7.4), 20 mM KCl 10 mM MgCl2 and 1 mM β-ME. The titrations were carried out in triplicate at 28 °C. The data was then analyzed using Origin software (version 7) and fitted to a one-site or a two-site binding model to obtain the binding affinity (Kd), stoichiometry (N) and enthalpy (ΔH) for each complex.

In series [4] the target is T2, LeuRSAt. In words: ATP/PPi exchange assay (amino acid activation), LeuRSAt. It is filed as biochemical, A. tumefaciens. Particulars: 28 °C, pH 7.4. How it is done: as §1
The target in series [5] is T1, wt AgnB2 (LeuRS). In words: ATP/PPi exchange assay (amino acid activation), AgnB2. As to conditions: 28 °C, pH 7.4.
Description: The formation of Leu-AMP by ATP/PPi exchange assays was performed as described earlier[23][50]. Briefly, the reaction buffer contained 50 mM HEPES buffer (pH 7.4), 20 mM KCl, 10 mM MgCl2, 500 μM L-leucine, 4 mM ATP, 1 mM tetrasodium pyrophosphate (NaPPi), 10 μCi/mmol [^32P] NaPPi and 1 μM bovine serum albumin (BSA). The reaction was initiated by addition of 1–4 nM of active enzyme and incubated at 28 °C. Aliquots (5 μl each) were collected over 30 min and quenched in a 10% charcoal slurry containing 0.5% HCl and 50 μl of 200 mM sodium pyrophosphate in 1 M HCl. Liquid scintillation counting was then used to measure the amount of [^32P]-PPi incorporation into ATP that was adsorbed onto the charcoal.
In series [6] the target is T1, wt AgnB2 (LeuRS). In words: Isothermal titration calorimetry, wt AgnB2. The class given is binding, Agrobacterium radiobacter K84. As to conditions: ITC, ligand binding to AgnB2 alone, 28 °C, pH 7.4; read-out: Kd. The procedure:
as §2
On the technique in general: ITC needs no label: the signal is the heat of the interaction.

For series [7], the target named is T3, AgnB2 (TM84-resistant leucyl-tRNA synthetase) (Agrobacterium radiobacter K84 (plasmid pAgK84)) (UniProt B9JQP8).
T3 sequence: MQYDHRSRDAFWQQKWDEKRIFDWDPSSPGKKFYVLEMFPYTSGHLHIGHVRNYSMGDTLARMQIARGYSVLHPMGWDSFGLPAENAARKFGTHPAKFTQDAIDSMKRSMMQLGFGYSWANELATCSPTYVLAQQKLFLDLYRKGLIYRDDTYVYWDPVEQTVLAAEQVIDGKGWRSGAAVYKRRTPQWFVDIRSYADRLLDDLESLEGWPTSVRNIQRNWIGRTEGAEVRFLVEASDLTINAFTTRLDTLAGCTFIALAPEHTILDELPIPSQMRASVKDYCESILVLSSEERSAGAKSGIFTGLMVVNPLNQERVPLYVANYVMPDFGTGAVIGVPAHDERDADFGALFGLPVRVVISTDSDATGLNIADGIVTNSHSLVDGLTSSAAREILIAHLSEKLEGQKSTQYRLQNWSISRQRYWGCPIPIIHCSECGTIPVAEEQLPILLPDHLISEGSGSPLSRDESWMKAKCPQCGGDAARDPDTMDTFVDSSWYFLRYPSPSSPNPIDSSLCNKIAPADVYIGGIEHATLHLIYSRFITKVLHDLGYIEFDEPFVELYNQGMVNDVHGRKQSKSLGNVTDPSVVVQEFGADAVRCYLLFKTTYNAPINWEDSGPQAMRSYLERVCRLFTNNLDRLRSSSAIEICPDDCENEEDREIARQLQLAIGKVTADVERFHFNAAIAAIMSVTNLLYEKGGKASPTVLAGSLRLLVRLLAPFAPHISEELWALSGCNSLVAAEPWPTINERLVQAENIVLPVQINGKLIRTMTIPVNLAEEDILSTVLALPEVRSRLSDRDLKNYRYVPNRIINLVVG
In words: ITC.

The test system of series [8] is LeuRSAt (leucyl-tRNA synthetase). As to conditions: aminoacylation, substrate, 28 °C, pH 7.4; cited from earlier work.
Series [9] relates to CC(C)C[C@H](N)C(=O)O. The series can be described thus: purified protein, by the assay type. Particulars: substrate, 28 °C, pH 7.4.
Where [10] appears, read: aminoacylation, substrate, 28 °C.

T2 sequence (Q8UBV2 whole entry): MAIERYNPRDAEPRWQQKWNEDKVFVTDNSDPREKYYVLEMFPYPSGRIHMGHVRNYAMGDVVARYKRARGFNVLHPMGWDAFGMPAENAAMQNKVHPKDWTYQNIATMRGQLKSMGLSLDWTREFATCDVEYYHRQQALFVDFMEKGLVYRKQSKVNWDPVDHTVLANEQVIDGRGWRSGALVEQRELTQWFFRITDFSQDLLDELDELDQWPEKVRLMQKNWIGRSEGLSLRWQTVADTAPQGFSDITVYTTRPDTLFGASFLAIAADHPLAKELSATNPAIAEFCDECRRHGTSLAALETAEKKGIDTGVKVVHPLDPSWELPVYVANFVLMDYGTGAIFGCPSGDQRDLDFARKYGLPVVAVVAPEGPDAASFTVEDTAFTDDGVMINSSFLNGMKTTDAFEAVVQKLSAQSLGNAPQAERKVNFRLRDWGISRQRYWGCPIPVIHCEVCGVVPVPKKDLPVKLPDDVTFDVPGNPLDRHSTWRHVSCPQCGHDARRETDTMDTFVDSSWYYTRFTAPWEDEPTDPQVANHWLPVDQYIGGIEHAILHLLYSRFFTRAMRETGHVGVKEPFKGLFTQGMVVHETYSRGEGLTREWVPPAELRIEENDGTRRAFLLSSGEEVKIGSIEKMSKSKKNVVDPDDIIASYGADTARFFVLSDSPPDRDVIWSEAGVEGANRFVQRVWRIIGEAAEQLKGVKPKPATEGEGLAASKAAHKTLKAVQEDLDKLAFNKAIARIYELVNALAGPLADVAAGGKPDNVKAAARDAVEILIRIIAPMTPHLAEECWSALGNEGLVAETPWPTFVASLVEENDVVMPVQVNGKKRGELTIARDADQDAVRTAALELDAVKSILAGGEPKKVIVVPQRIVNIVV

Usually Km stands for the concentration of substrate that gives half-maximal velocity. The kcat is the number of substrate molecules converted per active site and unit of time at saturation. Regarding LeuRSAt (Agrobacterium fabrum str. C58), in the series on CC(C)C[C@H](N)C(=O)O [1], the Km came out at 9.7 ± 0.7 µM and the kcat amounted to 85 ± 1.6 s⁻¹.

What is called Kd is the free concentration of one partner at which half of the binding sites on the other are occupied at equilibrium, for simple one-to-one binding. Take `CC(C)CC(N)C(=O)NS(=O)(=O)OCC1OC(n2cnc3c(N)ncnc32)C(O)C1O` (stereo not shown) [Leu-AMS, reference compound]: at wt AgnB2 (LeuRS) [2] (20 nM Leu-AMS, 2 nM wt AgnB2, 28 °C), the “inhibition of overall aminoacylation reaction” value is reported as “potently inhibited”. In addition, the results for the Kd at LeuRSAt [3] and on wt AgnB2 (LeuRS) [6] were 1.6 nM and 4.4 nM, respectively. The “inhibition of Leu-AMP formation” value at LeuRSAt [4] (25 nM Leu-AMS, 1 nM enzyme) was “potently inhibits”. Moreover, the “inhibition of amino acid activation (Leu-AMP formation)” value against wt AgnB2 (LeuRS) [5] (25 nM Leu-AMS, 1 nM enzyme) is on record as “potently inhibits”.

As to tRNALeu (agrobacterial), the Kd in series [7] amounted to 310 nM.

As for `Nc1ncnc2c1ncn2[C@@H]1O[C@H](COP(=O)(O)OP(=O)(O)OP(=O)(O)O)[C@@H](O)[C@H]1O` [ATP], the Km at wt AgnB2 (LeuRS) [2] (setting [10]) was 95.4 ± 18.3 µM; at LeuRSAt [4] (ATP-PPi exchange, substrate), 357 ± 22 µM; at wt AgnB2 (LeuRS) [5] (ATP-PPi exchange, substrate), 1050 ± 140 µM; in series [8] it was 396 ± 83 µM. Besides, the kcat at wt AgnB2 (LeuRS) [2] (setting [10]) was 0.43 ± 0.02 s⁻¹; on LeuRSAt [4] (ATP-PPi exchange, substrate) it was 87 ± 1.5 s⁻¹; on wt AgnB2 (LeuRS) [5] (ATP-PPi exchange, substrate), 67 ± 8.9 s⁻¹; in [8], 0.33 ± 0.02 s⁻¹.

Consider “wt AgnB2 (LeuRS) (Rhizobium rhizogenes K84)”, for which the Km in the series with CC(C)C[C@H](N)C(=O)O [9] (other: ATP-PPi exchange) stood at 12 ± 2 µM; with CC(C)C[C@H](N)C(=O)O [9] (other: aminoacylation), 28.7 ± 7.3 µM. The kcat with CC(C)C[C@H](N)C(=O)O [9] (other: ATP-PPi exchange) was 73 ± 3.6 s⁻¹; in the series with CC(C)C[C@H](N)C(=O)O [9] (other: aminoacylation), 0.35 ± 0.03 s⁻¹.

Turning to `CC(C)C[C@H](N)C(=O)O` [Leucine], in [8], the Michaelis constant (Km) was 38 ± 3.2 µM and the kcat is 0.38 ± 0.01 s⁻¹.
